26 compounds from patent US11492348B2, “Tri-substituted aryl and heteroaryl derivatives as modulators of PI3-kinase and autophagy pathways” (Neuropore Therapies, Inc., priority 2018, dated 2022) can be followed below.

Test [1] deals with mTor kinase (Homo sapiens (Human), UniProt P42345). As to the kind of experiment: mTor assay (33P-ATP filter-binding kinase assay). It is filed as biochemical. The following applies: 2 hours at room temperature. Here is the method: The substrate was prepared in base reaction buffer (20 mM Hepes (pH 7.5), 10 mM MgCl2, 1 mM EGTA, 0.02% Brij35, 0.02 mg/ml BSA, 0.1 mM Na3VO4, 2 mM DTT, 1% DMSO), and required cofactors were added to the substrate solution. The mTor kinase was delivered into the substrate solution, and the solution was gently mixed. Testing compounds were dissolved in 100% DMSO to specific concentration. The serial dilution was conducted by Integra Viaflo Assist in DMSO. The compounds were delivered into the kinase reaction mixture by Acoustic technology (Echo550; nanoliter range), and the reaction mixture was incubated for 20 min at room temperature. Then, 33P-ATP (Specific activity 10 μCi/μl) was delivered into the reaction mixture to initiate the reaction. The reaction mixture was incubated for 2 hours at room temperature. Radioactivity was detected by a filter-binding method. Kinase activity data were expressed as the percent remaining kinase activity in test samples compared to vehicle (dimethyl sulfoxide) reactions. IC50 values and curve fits were obtained using Prism (GraphPad Software).

For test [2], the target named is PI3Kα (Homo sapiens (Human), UniProt P42336). Description: Inhibition of PI3Kα (ADP-Glo kinase activity assay, ATP to ADP conversion). The following applies: 25 μM PIP2:PS, 60 μM ATP, 30 min reaction, luminescence. It is filed as biochemical. The gist of the method:
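Recombinant active PI3Kα (1.1 nM) in HEPES pH 7.5 buffer with 6 mM MgCl2 and 8 mM DTT was preincubated with compound for 0 or 3 h. The reaction ran for 30 min with 25 µM PIP2:PS and 60 µM ATP, and ADP formation was read by ADP-Glo luminescence. IC50 came from a 12-point, 1:3 series fitted with a 4-parameter model, bottom fixed to reference inhibitor controls and top floating.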
Background: In ADP-Glo the light output rises with the ADP produced.

In test [3] the test system is (Ser-473) pAKT in B103 (Rat Neuroblastoma) cells. As to the kind of experiment: pAKT protocol: loss of (Ser-473) pAKT by AlphaScreen in insulin-stimulated B103 cells. Format: cell-based. The conditions noted are these: (Ser-473) pAKT/total AKT IC50, 2-hour pretreatment, 2.5 μg/mL insulin 20 minutes. The gist of the method:
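Rat neuroblastoma B103 cells, serum-starved 6 h, were pretreated 2 h with inhibitors (6-point 1:3 series, 0.5% DMSO) before insulin stimulation. Lysate Ser-473 pAKT and total AKT measured by AlphaScreen; pAKT/total AKT ratio fitted to 4-parameter curve, bottom constrained to reference control, top anchored to DMSO.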
Background: Alpha assays give light when donor and acceptor beads are brought close together.

Counter-ions that a name gives are not always drawn.

PI3Kα, sequence (P42336 whole entry): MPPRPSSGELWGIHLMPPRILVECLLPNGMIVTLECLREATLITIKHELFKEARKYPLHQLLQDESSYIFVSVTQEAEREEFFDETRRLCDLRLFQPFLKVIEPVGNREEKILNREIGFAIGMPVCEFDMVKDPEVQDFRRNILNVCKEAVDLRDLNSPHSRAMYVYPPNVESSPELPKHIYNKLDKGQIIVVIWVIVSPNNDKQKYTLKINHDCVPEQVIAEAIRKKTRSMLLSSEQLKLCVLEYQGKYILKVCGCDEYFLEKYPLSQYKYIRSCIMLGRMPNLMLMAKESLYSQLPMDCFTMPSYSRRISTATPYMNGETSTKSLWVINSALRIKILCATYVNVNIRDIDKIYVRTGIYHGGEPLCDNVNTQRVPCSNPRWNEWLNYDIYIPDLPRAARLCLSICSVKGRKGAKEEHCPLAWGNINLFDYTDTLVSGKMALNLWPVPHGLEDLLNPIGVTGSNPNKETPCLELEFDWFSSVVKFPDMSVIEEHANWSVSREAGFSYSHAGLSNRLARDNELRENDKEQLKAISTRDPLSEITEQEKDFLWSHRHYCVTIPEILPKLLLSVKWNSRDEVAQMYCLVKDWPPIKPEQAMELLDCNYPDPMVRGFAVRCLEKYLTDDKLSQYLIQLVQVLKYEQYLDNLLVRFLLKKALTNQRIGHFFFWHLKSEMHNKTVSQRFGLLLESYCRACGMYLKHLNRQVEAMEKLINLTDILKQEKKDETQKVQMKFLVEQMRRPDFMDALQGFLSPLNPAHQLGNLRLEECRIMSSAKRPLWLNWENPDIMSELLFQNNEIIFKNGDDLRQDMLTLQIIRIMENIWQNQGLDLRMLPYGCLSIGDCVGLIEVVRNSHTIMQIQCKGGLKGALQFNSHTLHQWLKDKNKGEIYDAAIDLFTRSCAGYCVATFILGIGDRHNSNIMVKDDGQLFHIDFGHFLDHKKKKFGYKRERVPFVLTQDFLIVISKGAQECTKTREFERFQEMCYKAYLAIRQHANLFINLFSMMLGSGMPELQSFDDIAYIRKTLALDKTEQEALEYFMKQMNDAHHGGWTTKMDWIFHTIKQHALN
PI3Kα, sequence (P27986 whole entry partner): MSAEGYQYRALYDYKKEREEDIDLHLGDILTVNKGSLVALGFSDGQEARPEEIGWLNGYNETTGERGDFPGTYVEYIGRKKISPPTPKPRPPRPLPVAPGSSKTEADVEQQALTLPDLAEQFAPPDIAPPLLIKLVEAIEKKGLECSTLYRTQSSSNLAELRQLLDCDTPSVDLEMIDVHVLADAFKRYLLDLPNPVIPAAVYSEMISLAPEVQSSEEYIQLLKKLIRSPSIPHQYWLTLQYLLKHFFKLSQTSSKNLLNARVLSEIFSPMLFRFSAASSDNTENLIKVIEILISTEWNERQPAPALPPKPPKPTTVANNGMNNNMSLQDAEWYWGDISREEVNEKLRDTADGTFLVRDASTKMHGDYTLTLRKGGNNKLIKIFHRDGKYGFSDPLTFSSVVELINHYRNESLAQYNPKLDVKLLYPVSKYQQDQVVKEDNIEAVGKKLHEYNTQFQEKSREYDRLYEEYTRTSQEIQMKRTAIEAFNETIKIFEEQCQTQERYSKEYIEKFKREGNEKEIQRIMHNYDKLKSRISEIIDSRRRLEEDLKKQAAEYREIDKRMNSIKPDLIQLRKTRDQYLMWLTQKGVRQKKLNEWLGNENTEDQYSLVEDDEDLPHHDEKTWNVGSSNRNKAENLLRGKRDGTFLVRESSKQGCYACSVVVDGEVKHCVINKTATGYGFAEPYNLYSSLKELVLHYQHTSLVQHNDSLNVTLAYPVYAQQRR

In the case of `CC(=O)N1CCC(S(=O)(=O)c2cc(-c3cnc(N)nc3)cc(N3CCOCC3)c2)C1` (stereo not drawn) [Compound 91, 1-(3-((3-(2-aminopyrimidin-5-yl)-5-morpholinophenyl)sulfonyl)pyrrolidin-1-yl)ethan-1-one], the figures for the IC50 in test [1] and in test [3] were 2.58 µM and 7.33 µM, respectively. In test [2], the “PI3Ka IC50” value was 0.18 µM.
For `Nc1ncc(-c2cc(N3CCOCC3)cc(S(=O)(=O)c3ccc(F)cc3)c2)cn1` [Compound 8, 5-(3-((4-fluorophenyl)sulfonyl)-5-morpholinophenyl)pyrimidin-2-amine] the same measures were 0.83 µM, 7.62 µM and 1.3 µM.
Taken in the same sequence, the figures for `Nc1ncc(-c2cc(C(=O)c3ccccc3Cl)cc(N3CCOCC3)n2)cn1` [Compound 138, (2-(2-aminopyrimidin-5-yl)-6-morpholinopyridin-4-yl)(2-chlorophenyl)methanone] were 1.1 µM, 0.19 µM and 0.014 µM.
Regarding `Nc1cc(C(F)(F)F)c(-c2cc(N3CCOCC3)cc(S(=O)(=O)Cc3ccccc3)c2)cn1` [Compound 32, 5-(3-(benzylsulfonyl)-5-morpholinophenyl)-4-(trifluoromethyl)pyridin-2-amine], the values for the IC50 in test [1] and in test [3] were over 33 µM and 6.3 µM, respectively. Further, the “PI3Ka IC50” value in test [2] came out at 0.45 µM.
For `Nc1ncc(-c2cc(N3CCOCC3)cc(S(=O)(=O)c3ccc(F)c(Cl)c3)c2)cn1` [Compound 11, 5-(3-((3-chloro-4-fluorophenyl)sulfonyl)-5-morpholinophenyl)pyrimidin-2-amine] the same measures were 22 µM, 100 µM and 1.40 µM.
On to `Nc1ncc(-c2cc(N3CCOCC3)cc(S(=O)(=O)Cc3c[nH]c4ccccc34)c2)cn1` [48 (as a TFA salt), 5-(3-(((1H-indol-3-yl)methyl)sulfonyl)-5-morpholinophenyl)pyrimidin-2-amine], for which the values for the IC50 in test [1] and in test [3] were 6.39 µM and over 50 µM, respectively. Moreover, the “PI3Ka IC50” value in test [2] came out at 0.47 µM.
`Nc1ncc(-c2cc(OC3CN(C(=O)C4CC4)C3)cc(N3CCOCC3)n2)cn1` [Compound 129, (3-((2-(2-aminopyrimidin-5-yl)-6-morpholinopyridin-4-yl)oxy)azetidin-1-yl)(cyclopropyl)methanone]: the figures for the IC50 in test [1] and in test [3] were 2.95 µM and 3.46 µM, respectively. Besides, the “PI3Ka IC50” value in test [2] stood at 0.034 µM.
As to `CC(=O)Nc1ccc(S(=O)(=O)c2cc(-c3cnc(N)nc3)cc(N3CCOCC3)c2)cc1` [Compound 22, N-(4-((3-(2-aminopyrimidin-5-yl)-5-morpholinophenyl)sulfonyl)phenyl)acetamide], the IC50 (commonly the point on the concentration scale where inhibition reaches its midpoint) in test [1] was 8.69 µM; in test [3], 39 µM. The “PI3Ka IC50” value in test [2] came to 2.8 µM.
For `CC(=O)Nc1ncc(-c2cc(N3CCOCC3)cc(S(=O)(=O)c3ccccc3)c2)cn1` [Compound 30, N-(5-(3-morpholino-5-(phenylsulfonyl)phenyl)pyrimidin-2-yl)acetamide] the same measures were 10.9 µM, 18 µM and 3.1 µM.
On to `COc1ccccc1Oc1cc(-c2cnc(N)nc2)nc(N2CCOCC2)c1` [Compound 135, 5-(4-(2-methoxyphenoxy)-6-morpholinopyridin-2-yl)pyrimidin-2-amine], for which the IC50 was 0.7 µM in test [1] and 1.62 µM in test [3]. Besides, the “PI3Ka IC50” value in test [2] came out at 0.079 µM.
For `Nc1ncc(-c2cc(N3CCOCC3)cc(S(=O)(=O)[C@@H]3CCOC3)c2)cn1` [Compound 52, (R)-5-(3-morpholino-5-((tetrahydrofuran-3-yl)sulfonyl)phenyl)pyrimidin-2-amine] the same measures were 0.73 µM, 3.46 µM and 0.13 µM.
Taken in the same sequence, the figures for `Nc1ncc(-c2cc(OC3CCOC3)cc(N3CCOCC3)n2)cn1` (stereo not drawn) [Compound 130, 5-(6-morpholino-4-((tetrahydrofuran-3-yl)oxy)pyridin-2-yl)pyrimidin-2-amine] were 1.75 µM, 0.75 µM and 0.023 µM.
Taken in the same sequence, the figures for `Nc1ncc(-c2cc(S(=O)(=O)c3ccccc3)cc(N3CCOCC3)n2)cn1` [Compound 115, 5-(6-morpholino-4-(phenylsulfonyl)pyridin-2-yl)pyrimidin-2-amine] were 0.063 µM, 0.57 µM and 0.066 µM.
Take `Nc1cc(C(F)(F)F)c(-c2cc(N3CCOCC3)cc(S(=O)(=O)C3CCOC3)c2)cn1` (stereo not drawn) [Compound 70, 5-(3-morpholino-5-((tetrahydrofuran-3-yl)sulfonyl)phenyl)-4-(trifluoromethyl)pyridin-2-amine]: the IC50 is 7.61 µM in test [1] and 4.02 µM in test [3]. Moreover, the “PI3Ka IC50” value in test [2] turned out to be 7.6 µM.
In the case of `Nc1ncc(-c2cc(Oc3ccccc3Cl)cc(N3CCOCC3)n2)cn1` [Compound 134, 5-(4-(2-chlorophenoxy)-6-morpholinopyridin-2-yl)pyrimidin-2-amine], the IC50 in test [1] was 0.45 µM; in test [3], 0.38 µM. In addition, the “PI3Ka IC50” value in test [2] was determined as 0.07 µM.
Taken in the same sequence, the figures for `Nc1ncc(-c2cc(N3CCOCC3)cc(S(=O)(=O)Cc3ccccc3)c2)cn1` [Compound 23, 5-(3-(benzylsulfonyl)-5-morpholinophenyl)pyrimidin-2-amine] were 3 µM, 8.5 µM and 0.10 µM.
Consider `Cc1ccccc1Oc1cc(-c2cnc(N)nc2)nc(N2CCOCC2)c1` [Compound 137, 5-(6-morpholino-4-(o-tolyloxy)pyridin-2-yl)pyrimidin-2-amine], for which the IC50 in test [1] came out at 0.37 µM; in test [3], 0.45 µM. Moreover, in test [2], the “PI3Ka IC50” value amounted to 0.075 µM.
Taken in the same sequence, the figures for `Nc1ncc(-c2cc(C(=O)c3ccccc3)cc(N3CCOCC3)n2)cn1` [Compound 122, (2-(2-aminopyrimidin-5-yl)-6-morpholinopyridin-4-yl)(phenyl)methanone] were 0.51 µM, 0.48 µM and 0.037 µM.
Taken in the same sequence, the figures for `Nc1ncc(-c2cc(N3CCOCC3)cc(S(=O)(=O)Cc3ccc(F)cc3F)c2)cn1` [Compound 26, 5-(3-((2,4-difluorobenzyl)sulfonyl)-5-morpholinophenyl)pyrimidin-2-amine] were 5.3 µM, 6.2 µM and 0.27 µM.
As for `Nc1ncc(-c2cc(Oc3ccccc3OC(F)(F)F)cc(N3CCOCC3)n2)cn1` [Compound 136, 5-(6-morpholino-4-(2-(trifluoromethoxy)phenoxy)pyridin-2-yl)pyrimidin-2-amine], the IC50 in test [1] was determined as 2.06 µM; in test [3] it was 1.51 µM. Also, the “PI3Ka IC50” value in test [2] worked out at 0.37 µM.
Taken in the same sequence, the figures for `Nc1ncc(-c2cc(N3CCOCC3)cc(S(=O)(=O)c3cccc4c3OCC4)c2)cn1` [Compound 111, 5-(3-((2,3-dihydrobenzofuran-7-yl)sulfonyl)-5-morpholinophenyl)pyrimidin-2-amine] were 5.4 µM, 14.5 µM and 0.38 µM.
Taken in the same sequence, the figures for `Nc1ncc(-c2cc(C(=O)C3CCOCC3)cc(N3CCOCC3)n2)cn1` [Compound 131, (2-(2-aminopyrimidin-5-yl)-6-morpholinopyridin-4-yl)(tetrahydro-2H-pyran-4-yl)methanone] were 0.59 µM, 0.56 µM and 0.023 µM.
For `O=S(=O)(c1ccccc1)c1cc(-c2cnc(NCCO)nc2)cc(N2CCOCC2)c1` [Compound 19, 2-((5-(3-morpholino-5-(phenylsulfonyl)phenyl)pyrimidin-2-yl)amino)ethan-1-ol] the same measures were 16 µM, 37 µM and 2.9 µM.
Take `N#Cc1cccc(CS(=O)(=O)c2cc(-c3cnc(N)nc3)cc(N3CCOCC3)c2)c1` [Compound 27, 3-(((3-(2-aminopyrimidin-5-yl)-5-morpholinophenyl)sulfonyl)methyl) benzonitrile]: the IC50 is 11 µM in test [1] and 14 µM in test [3]. In test [2], the “PI3Ka IC50” value was determined as 0.38 µM.
For `Nc1ncc(-c2cc(N3CCOCC3)cc(S(=O)(=O)CC3CCOC3)c2)cn1` (stereo not drawn) [Compound 38, 5-(3-morpholino-5-(((tetrahydrofuran-3-yl)methyl)sulfonyl)phenyl)pyrimidin-2-amine] the same measures were 3.6 µM, 9.11 µM and 0.74 µM.
For `Nc1ncc(-c2cc(N3CCOCC3)cc(S(=O)(=O)c3ccccc3)c2)cn1` [Compound 1, 5-(3-morpholino-5-(phenylsulfonyl)phenyl)pyrimidin-2-amine] the same measures were 2 µM, 7.52 µM and 0.61 µM.
